Here are results for one compound from patent US11840527B2, “Non-fused thiophene derivatives and their uses” (ENYO PHARMA, priority 2018, dated 2023).

Common to all, as to assay: Cytotoxicity, propidium iodide-based monolayer assay
Assay [1] relates to LXFL 1121. As to conditions: 96 h; LXFL 1121, lung large cell carcinoma; four days of treatment; T/C=50%; read-out: Absolute IC50. The protocol:
(§1) The cytotoxicity was tested for compounds of the invention on five different cell-lines, namely LXFL 1121, MAXF 401, MMXF L-636, PRXF PC-3M and UXF 1138 which are respectively lung large cell carcinoma, breast adeno carcinoma, multiple myeloma, prostate adeno carcinoma and uterine sarcoma.
Therefore, the compounds have a cytotoxicity against tumor cells and can be used for treating cancer. Materials and Methods Compound Handling A working stock solution of the test compounds was prepared in DMSO at a concentration of 33 mM or 8.25 mM, and small aliquots were stored at −20° C. On each day of an experiment, a frozen aliquot of the working stock solution was thawed and stored at room temperature prior to and during treatment. All liquid handling steps were performed using the Tecan Freedom EVO 200 platform. First, serial 2-fold dilutions of the 33 mM DMSO working stock solution were done in DMSO. […] Briefly, cells were harvested from exponential phase cultures, counted and plated in 96 well flat-bottom microtiter plates at a cell density of 4,000 to 40,000 cells/well dependent on the cell line's growth rate. […] After an incubation period of 1-2 hours at room temperature, fluorescence (FU) was measured using the Enspire Multimode Plate Reader (excitation λ=530 nm, emission λ=620 nm) to quantify the amount of attached viable cells. […]

Assay [2] relates to MMXF L-363. It is filed as cell-based. Particulars: Homo sapiens, 96 h; MMXF L-363, multiple myeloma; four days of treatment; T/C=50%; read-out: Absolute IC50. On the procedure:
as §1
(§2) Therefore, the compounds have a cytotoxicity against tumor cells and can be used for treating cancer. Materials and Methods Compound Handling A working stock solution of the test compounds was prepared in DMSO at a concentration of 33 mM or 8.25 mM, and small aliquots were stored at −20° C. On each day of an experiment, a frozen aliquot of the working stock solution was thawed and stored at room temperature prior to and during treatment. All liquid handling steps were performed using the Tecan Freedom EVO 200 platform. First, serial 2-fold dilutions of the 33 mM DMSO working stock solution were done in DMSO. The DMSO dilutions were then diluted 1:22 into cell culture medium in an intermediate dilution plate. Finally, 10 μl taken from the intermediate dilution plate were transferred to 140 μl/well of the final assay plate. Thus, the DMSO serial dilutions were diluted 1:330 with cell culture medium, and the DMSO concentration in the assay was 0.3% v/v. Tumor Cell Lines The cell lines used in this study were derived from solid tumors as well as from hematological malignancies. Cell lines were routinely passaged once or twice weekly and maintained in culture for up to 20 passages. Most cell lines were grown at 37° C. in a humidified atmosphere with 5% CO2 in RPMI 1640 medium (25 mM HEPES, with L-glutamine, #FG1385, Biochrom, Berlin, Germany) supplemented with 10% (v/v) fetal calf serum (Sigma, Taufkirchen, Germany) and 0.05 mg/mL gentamicin (Life Technologies, Karlsruhe, Germany). […] Briefly, cells were harvested from exponential phase cultures, counted and plated in 96 well flat-bottom microtiter plates at a cell density of 4,000 to 40,000 cells/well dependent on the cell line's growth rate. […] After an incubation period of 1-2 hours at room temperature, fluorescence (FU) was measured using the Enspire Multimode Plate Reader (excitation λ=530 nm, emission λ=620 nm) to quantify the amount of attached viable cells. Data Evaluation An assay was considered fully evaluable if the following quality control criteria were fulfilled: • Z′-factor calculated within the assay plate ≥0.5 • control/background ratio >3.0 • coefficient of variation in the growth control wells ≤30% Drug effects were expressed in terms of the percentage of the fluorescence signal, obtained by comparison of the mean signal in the treated wells with the mean signal of the untreated controls (expressed by the test-versus-control value, T/C-value [%]): […]

The test system of assay [3] is MAXF 401. The class given is cell-based. As to conditions: Homo sapiens, MAXF401, 96 h; MAXF 401, breast adeno carcinoma; four days of treatment; T/C=50%; read-out: Absolute IC50. On the procedure: as §1, §2
The test system of assay [4] is UXF 1138. It is filed as cell-based. Particulars: 96 h; UXF 1138, uterine sarcoma; four days of treatment; T/C=50%; read-out: Absolute IC50. On the procedure: as §1, §2
Assay [5] relates to PRXF PC-3M. The class given is cell-based. As to conditions: Homo sapiens, 96 h, prostate adeno carcinoma, four days of treatment, T/C=50%, read-out: Absolute IC50. On the procedure:
as §1, §2

Regarding `O=C(Nc1scc(-c2ccc(Cl)c(F)c2)c1C(=O)O)c1ccccc1` [Compound #2, 2-Benzamido-4-(4-chloro-3-fluoro-phenyl)thiophene-3-carboxylic acid], the IC50 in assay [1] was 10.7 µM; in assay [2] it was 11.9 µM; in assay [3], 6.56 µM; in assay [4] it was 4.48 µM; in assay [5] it was 4.74 µM.

The IC50 is the concentration at which inhibition is half-maximal.
